For 9 molecules, inhibition results are on record in patent publication US11851449B2, “Heterocyclic amide compounds having an RORvt inhibitory action” (TAKEDA PHARMACEUTICAL COMPANY LIMITED, priority 2013, dated 2023).

Test [1] concerns the target T1, RORγt (Homo sapiens, UniProt P51449).
T1 sequence (P51449 1-497 isoform P51449-2): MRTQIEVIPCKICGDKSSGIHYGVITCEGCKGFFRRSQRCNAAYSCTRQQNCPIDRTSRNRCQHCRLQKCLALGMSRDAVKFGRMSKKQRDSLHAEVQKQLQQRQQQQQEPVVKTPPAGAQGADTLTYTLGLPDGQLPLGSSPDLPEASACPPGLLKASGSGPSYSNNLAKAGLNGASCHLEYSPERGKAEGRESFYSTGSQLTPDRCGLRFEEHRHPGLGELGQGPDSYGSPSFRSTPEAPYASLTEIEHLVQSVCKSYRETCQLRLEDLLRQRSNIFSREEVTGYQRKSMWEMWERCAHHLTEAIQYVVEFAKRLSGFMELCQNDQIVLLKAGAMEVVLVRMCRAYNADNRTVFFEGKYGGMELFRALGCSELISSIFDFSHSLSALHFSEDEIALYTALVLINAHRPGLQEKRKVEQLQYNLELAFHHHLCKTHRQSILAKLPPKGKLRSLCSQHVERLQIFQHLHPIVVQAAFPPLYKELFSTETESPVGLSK
As to the kind of experiment: Cofactor recruitment test (Alpha Screen, biotinylated SRC-1 peptide). It is filed as biochemical. Particulars: read-out: signal value inhibitory rate (%) at test compound 1 μM. How it is done:
Cofactor Recruitment Test
Cofactor recruitment test was performed by Alpha Screen (Histidine Detection Kit, PerkinElmer) method. First, a test compound was diluted with an assay buffer (50 mM Tris-HCl (pH 7.5), 50 mM KCl, 1 mM DTT, 0.1% BSA) and added to a 384 well plate by 5 μL. […] The mixture was stood in a dark place for 1 hr, and the signal value was measured by Envision (PerkinElmer).

For test [2], the target named is T1, RORγt. As to the kind of experiment: RORγt binding test (TR-FRET, fluorescent-labeled cholesterol). The note with it: read-out: binding inhibitory rate (%) of fluorescent-labeled cholesterol to RORγt at test compound 1 μM. In outline: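 His-tagged RORγt and BODIPY-cholesterol were incubated with compound for 20 min at room temperature in Tris-HCl pH 7.5, 100 mM NaCl, 1 mM DTT and 0.1% BSA. Terbium anti-His antibody was then added for a further 20 min.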

The target in test [3] is T1, RORγt. The test can be described thus: Jurkat reporter test (human IL-17 ROR response element luciferase reporter). It is filed as cell-based. Particulars: Jurkat, read-out: luminescence level inhibitory rate (%) at test compound 3 μM. An outline of the steps: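 Luminescence (Bright-Glo, 10 min, RT) was measured after overnight compound treatment of electroporated Jurkat cells (1350 V, 10 ms interval, 3 pulses). The reaction medium was RPMI with 10% lipid-reduced FCS, 10 mM HEPES (pH 7.5) and 5 μM lovastatin.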
On the technique in general: A reporter such as luciferase makes a cellular process visible.

Consider `COc1ccc([C@@H](NC(=O)N2CC[C@@H](O)C2)C(=O)Nc2ccc([Si](C)(C)C)c(F)c2)cc1` [Example 71, (3R)—N-((1R)-2-((3-fluoro-4-(trimethylsilyl)phenyl)amino)-1-(4-methoxyphenyl)-2-oxoethyl)-3-hydroxypyrrolidine-1-carboxamide], for which the inhibition at 1 µM at RORγt [1] worked out at 89.9%; at RORγt [2], 101%. Moreover, the inhibition at 3 µM on RORγt [3] is 99%.

Consider `COCc1ccc([C@@H](NC(=O)CCO)C(=O)Nc2cc(F)c([Si](C)(C)C)c(F)c2)cc1` [Example 72, N-((1R)-2-((3,5-difluoro-4-(trimethylsilyl)phenyl)amino)-1-(4-(methoxymethyl)phenyl)-2-oxoethyl)-3-hydroxypropanamide], for which the inhibition at 1 µM at RORγt [1] was 96.7%; on RORγt [2], 102%. The inhibition at 3 µM on RORγt [3] amounted to 99.2%.

On to `COCc1ccc([C@@H](NC(=O)CCC#N)C(=O)Nc2cc(F)c([Si](C)(C)C)c(F)c2)cc1` [Example 73, 3-cyano-N-((1R)-2-((3,5-difluoro-4-(trimethylsilyl)phenyl)amino)-1-(4-(methoxymethyl)phenyl)-2-oxoethyl)propanamide], for which the inhibition at 1 µM at RORγt [1] worked out at 96.7%; at RORγt [2], 103%. At RORγt [3], the inhibition at 3 µM was 97.9%.

On to `COCc1ccc([C@@H](NC(=O)Cc2nnc(C)o2)C(=O)Nc2cc(F)c([Si](C)(C)C)c(F)c2)cc1` [Example 74, (2R)—N-(3,5-difluoro-4-(trimethylsilyl)phenyl)-2-(4-(methoxymethyl)phenyl)-2-(((5-methyl-1,3,4-oxadiazol-2-yl)acetyl)amino)acetamide], for which the inhibition at 1 µM came out at 97.6% at RORγt [1] and 101% on RORγt [2]. Also, on RORγt [3], the inhibition at 3 µM was 99.4%.

With `COCc1ccc([C@@H](NC(=O)Cc2cc(O)no2)C(=O)Nc2ccc([Si](C)(C)C)c(F)c2)cc1` [Example 75, (2R)—N-(3-fluoro-4-(trimethylsilyl)phenyl)-2-(((3-hydroxy-1,2-oxazol-5-yl)acetyl)amino)-2-(4-(methoxymethyl)phenyl)acetamide], the figures for the inhibition at 1 µM on RORγt [1] and on RORγt [2] were 95.8% and 102%, respectively. Besides, the inhibition at 3 µM at RORγt [3] turned out to be 99.7%.

For `COCc1ccc([C@@H](NC(=O)Cc2cc(O)no2)C(=O)Nc2cc(F)c([Si](C)(C)C)c(F)c2)cc1` [Example 76, (2R)—N-(3,5-difluoro-4-(trimethylsilyl)phenyl)-2-(((3-hydroxy-1,2-oxazol-5-yl)acetyl)amino)-2-(4-(methoxymethyl)phenyl)acetamide], the inhibition at 1 µM at RORγt [1] worked out at 98.5%; at RORγt [2], 103%. Besides, at RORγt [3], the inhibition at 3 µM was determined as 99.3%.

On to `COCc1ccc([C@H](C(=O)Nc2cc(F)c([Si](C)(C)C)c(F)c2)N(C)C(=O)c2cc(O)no2)cc1` [Example 77, N-((1R)-2-((3,5-difluoro-4-(trimethylsilyl)phenyl)amino)-1-(4-(methoxymethyl)phenyl)-2-oxoethyl)-3-hydroxy-N-methyl-1,2-oxazole-5-carboxamide], for which the inhibition at 1 µM on RORγt [1] came to 97.3%; at RORγt [2] it was 103%. For the same molecule, the inhibition at 3 µM on RORγt [3] amounted to 99.7%.

Consider `COCc1ccc([C@@H](NC(=O)Cn2ccc(=O)cc2)C(=O)Nc2ccc([Si](C)(C)C)c(F)c2)cc1` [Example 78, (2R)—N-(3-fluoro-4-(trimethylsilyl)phenyl)-2-(4-(methoxymethyl)phenyl)-2-(((4-oxopyridin-1(4H)-yl)acetyl)amino)acetamide], for which the results for the inhibition at 1 µM at RORγt [1] and on RORγt [2] were 93.2% and 102%, respectively. In addition, the inhibition at 3 µM on RORγt [3] is 96%.

Regarding `CCC(=O)N[C@@H](C(=O)Nc1ccc([Si](C)(C)C)c(F)c1)c1ccc(COC)cc1` [Example 79, N-((1R)-2-((3-fluoro-4-(trimethylsilyl)phenyl)amino)-1-(4-(methoxymethyl)phenyl)-2-oxoethyl)propanamide], the inhibition at 1 µM at RORγt [1] amounted to 93%; at RORγt [2], 103%. Moreover, at RORγt [3], the inhibition at 3 µM was determined as 98.4%.
